# Columns and labels:
# [1] = biological target: T1, human recombinant serotonin (5-Hydroxytryptamine) 5-HT2A receptor (Homo sapiens, UniProt P28223); assay: Serotonin 5-HT2A radioligand binding ([3H]Ketanserin); design: Inhibition of ligand binding, Ser. 5-HT2A: concentration or dose not given beside the values; details: percent inhibition of specific binding
# T1 construct: expressed in transfected cells; host or cells: CHO-K1 cells
# Procedure: Compounds of the invention were incubated with 0.5 nM [^3H]Ketanserin for 60 minutes at 25° C. Non-specific binding was estimated in the presence of 1 μM Mianserin. Receptor proteins were filtered and washed, the filters were then counted to determine [^3H]Ketanserin specifically bound. […] Biochemical assay results are presented as the percent inhibition of specific binding in Table 6.
# [2] = biological target: T2, human recombinant dopamine D2L receptor (Homo sapiens, UniProt P14416); assay: Dopamine D2L radioligand binding ([3H]Spiperone); details: percent inhibition of specific binding
# T2 construct: expressed in transfected cells; host or cells: CHO cells
# Procedure: Non-specific binding was estimated in the presence of 10 μM Haloperidol. Receptor proteins were filtered and washed, the filters were then counted to determine [^3H]Spiperone specifically bound. […] Biochemical assay results are presented as the percent inhibition of specific binding in Table 6.
# [3] = test system: synaptosomes of cortex of rat brain; assay: Glutamate-induced 45Ca2+ uptake into synaptosomes; assay type: biochemical, Wistar rats; details: for % Ca of control (control-100%), glutamate-induced 45Ca2+ uptake into synaptosomes: rat cortex synaptosomes
# Method in brief: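 Cortical synaptosomes (P2 fraction) from 9-10-day-old Wistar rats, ~1.5-2 mg/ml protein in HEPES-buffered saline with glucose, pH 7.4, stimulated 5 min with 200 μM glutamate at 37° C. 45Ca2+ uptake measured by filtration and scintillation counting; specific uptake with compound expressed as percentage of glutamate-induced uptake, each corrected for unstimulated uptake.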
# C57BL/6 mice [4] = details: 0.01-0.1 mg/kg; previously shown; cited from earlier work
# C57BL/6 mice [5] = assay: Recognition of the new object (non-spatial recognition memory); assay type: in vivo
# Description: The object recognition test is based on the fact that mice and rats spontaneously explore new object or location of a known object a lot longer than the know object or a known location of an object. This test was first used in rats (Ennaceur A., Delacour J., 1988). It was further shown by others that this type of memory testing is suitable for mice (Dodart J. et al. 1997, Messier C. 1997, Pittenger C. et al., 2002, Ryabinin A. et al., 2002, Sargolini F. et al., 2003). The method of recognition of an object is divided in two stages. The first one involves the recognition of a new location of a known object, which is used to assess spatial memory. The second one includes a test for recognition of a new in order to evaluate the non-spatial memory (Gaffan D., 1992, Kolb B. et al., 1994, Steckler T., 1998). Currently, both are widely used to determine the effectiveness of newly synthesized drugs on memory.
# Dimebon and compounds of the invention were dissolved in distilled water and administered orally at 0.05 mL per 10 g of animal mass 1 hour before the training exercise. All animals in the control group were treated with the equivalent dose of vehicle. The testing was performed 48 hours after the training exercise because animals forget the location of the object during the 48-hour resting time.
# The following experiment was also performed on 3-4 months old males (C57BL/6 line) with 10 animals in each group. All animals were kept in the animal facility (5 animals per cage) on the 12×12 hours light cycle (8 am-8 pm) with free access to food and water. However, in this case a round bottom testing chamber 52 cm in diameter (20.5 inches) and 34 cm (13.4 inches) high was used. Similarly, brown glass vials were used as test objects which are 2.7 cm in diameter (1.1 inch) and 5.5 cm high (2.2 inch). The testing compounds were administered orally at 0.05 mL per 10 g of animal mass 1 hour before the training exercise. All animals in the control group were treated with the equivalent dose of vehicle. The testing was performed 48 hours after the training exercise because animals forget the location of the object during the 48-hour resting time.
# The experimental procedure was identical to the previously described test (Recognition of a new location of a known object). The major difference is in the testing procedure which involved one known object (brown glass vial) and one unknown object. The second glass vial was substituted with metallic cylinder 3 cm (1.2 inches) in diameter and 4.5 cm (1.8 inches) high.
# Due to fair differences in the amount of time that each animal surveyed the object, the percentage of the survey time for each animal was determined using this formula: tNL/(tFL+tNL)×100 (where t is time, NL—new location(object), and FL—familiar location(object)). As 100% was taken the total amount of time that animals explored both objects. Subsequently, the statistical significance was analyzed using a Student's t-test criteria.
# mice = assay: recognition test of new location of a known object (spatial memory); assay type: in vivo
# [6] = 0.05 mg/kg, 1 hour prior to training, test 48 hours after training
# T2 sequence (P14416 whole entry): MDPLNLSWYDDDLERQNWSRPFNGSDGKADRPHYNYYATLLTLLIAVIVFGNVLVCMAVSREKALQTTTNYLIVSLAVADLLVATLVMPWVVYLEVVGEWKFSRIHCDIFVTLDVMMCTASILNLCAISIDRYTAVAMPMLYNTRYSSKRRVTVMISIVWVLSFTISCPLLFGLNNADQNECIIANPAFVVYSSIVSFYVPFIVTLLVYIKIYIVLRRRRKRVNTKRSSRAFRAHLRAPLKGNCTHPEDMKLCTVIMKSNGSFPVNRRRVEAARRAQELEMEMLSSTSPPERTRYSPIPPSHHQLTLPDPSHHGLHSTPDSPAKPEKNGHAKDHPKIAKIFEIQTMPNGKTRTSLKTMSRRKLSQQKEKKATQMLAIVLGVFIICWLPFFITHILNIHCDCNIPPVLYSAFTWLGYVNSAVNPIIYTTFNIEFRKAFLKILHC
# T1 sequence (P28223 whole entry): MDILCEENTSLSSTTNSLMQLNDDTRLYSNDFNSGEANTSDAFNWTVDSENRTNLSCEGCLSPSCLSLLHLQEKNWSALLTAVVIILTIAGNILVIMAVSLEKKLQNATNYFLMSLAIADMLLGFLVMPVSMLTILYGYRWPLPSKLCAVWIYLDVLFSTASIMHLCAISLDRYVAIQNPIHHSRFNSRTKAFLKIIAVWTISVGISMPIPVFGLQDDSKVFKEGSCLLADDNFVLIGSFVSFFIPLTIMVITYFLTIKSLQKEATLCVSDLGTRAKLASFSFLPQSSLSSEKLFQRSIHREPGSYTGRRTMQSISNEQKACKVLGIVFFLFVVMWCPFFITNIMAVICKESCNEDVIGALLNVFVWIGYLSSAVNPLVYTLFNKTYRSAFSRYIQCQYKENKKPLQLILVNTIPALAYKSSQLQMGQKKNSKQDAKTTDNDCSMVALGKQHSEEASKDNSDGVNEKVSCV
smiles,measurement,setting,value
CN1CCc2c(c3cc(Cl)ccc3n2CCc2ccc(C(F)(F)F)nc2)C1 [Compound 250],"Inhibition of ligand binding, Ser. 5-HT2A",[1],101%
same,"Inhibition of ligand binding, Dop. D2L",[2],21%
CN1CCc2c(c3cc(Cl)ccc3n2CCc2nc(-c3ccccc3)cs2)C1 [Compound C1-8],inhibition of glutamate-induced 45Ca2+ uptake into synaptosomes,[3]; 1-5 μM,~14%
same,"glutamate-induced 45Ca2+ uptake into synaptosomes of rat cortex, % of control",[3]; 50-100 μM,122%
same,"% Ca of control (control-100%), glutamate-induced 45Ca2+ uptake into synaptosomes",[3]; compound 0.1 μM,99.2 ± 1.4%
same,"% Ca of control (control-100%), glutamate-induced 45Ca2+ uptake into synaptosomes",[3]; compound 0.5 μM,96.7 ± 2.4%
same,"% Ca of control (control-100%), glutamate-induced 45Ca2+ uptake into synaptosomes",[3]; compound 1 μM,86.1 ± 0.1%
same,"% Ca of control (control-100%), glutamate-induced 45Ca2+ uptake into synaptosomes",[3]; compound 5 μM,87.7 ± 2.7%
same,"% Ca of control (control-100%), glutamate-induced 45Ca2+ uptake into synaptosomes",[3]; compound 10 μM,99.3 ± 3.0%
same,"% Ca of control (control-100%), glutamate-induced 45Ca2+ uptake into synaptosomes",[3]; compound 50 μM,122.4 ± 1.6%
same,"% Ca of control (control-100%), glutamate-induced 45Ca2+ uptake into synaptosomes",[3]; compound 100 μM,121.7 ± 13.9%
"Cc1ccc2c(c1)c1c(n2CCc2ccc(C)nc2)CCN(C)C1 [Dimebon, dimebon, reference compound]",concentration at which glutamate-induced 45Ca2+ uptake into synaptosomes was inhibited,[3],0.25 to 10 µM
same,inhibition of glutamate-induced 45Ca2+ uptake into synaptosomes,[3]; 1 μM (maximal inhibition),40%
same,"glutamate-induced 45Ca2+ uptake into synaptosomes of rat cortex, % Ca of control (control-100%)",[3]; C 0.1 μM,120 ± 3.3%
same,"glutamate-induced 45Ca2+ uptake into synaptosomes of rat cortex, % Ca of control (control-100%)","[3]; C 0.1 μM, listed as dimebon",120.4%
same,"glutamate-induced 45Ca2+ uptake into synaptosomes of rat cortex, % Ca of control (control-100%)",[3]; C 0.5 μM,64.4 ± 12.4%
same,"glutamate-induced 45Ca2+ uptake into synaptosomes of rat cortex, % Ca of control (control-100%)",[3]; C 1.0 μM,61.3 ± 8.1%
same,"glutamate-induced 45Ca2+ uptake into synaptosomes of rat cortex, % Ca of control (control-100%)",[3]; C 5.0 μM,83.2 ± 4.1%
same,"glutamate-induced 45Ca2+ uptake into synaptosomes of rat cortex, % Ca of control (control-100%)",[3]; C 10 μM,89.3 ± 1.2%
same,"glutamate-induced 45Ca2+ uptake into synaptosomes of rat cortex, % Ca of control (control-100%)",[3]; C 25 μM,97.2 ± 8.5%
same,"glutamate-induced 45Ca2+ uptake into synaptosomes of rat cortex, % Ca of control (control-100%)",[3]; C 50 μM,98.7 ± 8.8%
same,"glutamate-induced 45Ca2+ uptake into synaptosomes of rat cortex, % Ca of control (control-100%)",[3]; C 100 μM,132 ± 2.9%
same,"glutamate-induced 45Ca2+ uptake into synaptosomes of rat cortex, % Ca of control (control-100%)","[3]; C 100 μM, listed as dimebon",132%
same,effect on memory in the recognition test of a known object in a new location,C57BL/6 mice [4],dose-dependent activating effect on memory
same,"Inhibition of ligand binding, Ser. 5-HT2A",[1],82%
same,effect on memory in the new object recognition test,C57BL/6 mice [5]; 0.005 mg/kg,memory activating effect
same,"time spent to recognize the known object, % of the total time",C57BL/6 mice [5]; [6],34.4±4.4%
same,"time spent to recognize the new object, % of the total time",C57BL/6 mice [5]; [6],65.6±4.4%
same,effect on memory in the new object recognition test,C57BL/6 mice [5]; 0.5 mg/kg,not statistically significant
same,effect on memory in the new object recognition test,C57BL/6 mice [5]; 1-2 mg/kg,the stimulating effect on memory returned
same,"Inhibition of ligand binding, Dop. D2L",[2],41%
same,Influence on memory in the test recognition new localization of known object,mice; Dose of Compound 0.05 mg/kg,+
same,Influence on memory in the test recognition new localization of known object,mice; Dose of Compound 0.1 mg/kg,+
same,Influence on memory in the test recognition new localization of known object,mice; Dose of Compound 0.5 mg/kg,−
same,Influence on memory in the test recognition new localization of known object,mice; Dose of Compound 1.0 mg/kg,−
